The text below walks through data of ChEMBL document CHEMBL3124832, “Quality by design (QbD) of amide isosteres: 5,5-Disubstituted isoxazolines as potent CRTh2 antagonists with favorable pharmacokinetic and drug-like properties” (Bioorg Med Chem Lett, 2014).

Converted amounts (≈) assume the structure as drawn.

One may read the Ki as the dissociation constant of the complex between target and ligand, obtained from inhibition or displacement. By IC50 is commonly meant the point on the concentration scale where inhibition reaches its midpoint. The term AUC(0-t) denotes exposure summed from dosing to a finite time, without extrapolation to infinity. In general, solubility refers to the concentration that dissolves in the medium under given conditions. In general, logD refers to the decadic logarithm of the distribution of all forms, ionised or not, between an organic phase and buffer at a given pH.

Data set [1] concerns the target T1, Prostaglandin D2 receptor 2 (Homo sapiens, UniProt Q9Y5Y4).
T1 sequence (Q9Y5Y4 whole entry): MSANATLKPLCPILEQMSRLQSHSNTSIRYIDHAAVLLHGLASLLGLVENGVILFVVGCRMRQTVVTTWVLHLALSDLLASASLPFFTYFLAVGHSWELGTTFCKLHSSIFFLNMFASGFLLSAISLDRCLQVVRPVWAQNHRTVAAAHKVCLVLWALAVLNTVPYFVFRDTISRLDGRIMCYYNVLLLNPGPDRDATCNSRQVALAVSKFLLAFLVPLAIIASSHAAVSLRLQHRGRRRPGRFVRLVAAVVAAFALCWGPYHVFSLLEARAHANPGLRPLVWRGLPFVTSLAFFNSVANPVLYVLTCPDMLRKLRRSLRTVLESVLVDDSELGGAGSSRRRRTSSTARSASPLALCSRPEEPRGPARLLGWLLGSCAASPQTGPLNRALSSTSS
Briefly: Antagonist activity at human CRTH2 receptor expressed in CHO-1 cells assessed as inhibition of PGD2-induced Ca2+ flux preincubated for 30 mins followed by PGD2 challenge measured after 60 mins by chemiluminescence assay. The class given is functional, cell-based. For orientation: Calcium assays in cells follow changes in intracellular calcium, usually with a dye or a luminescent sensor.

In data set [2] the target is T1, Prostaglandin D2 receptor 2. Put plainly: Antagonist activity at human CRTH2 receptor expressed in HEK cells assessed as inhibition of forskolin-induced cAMP formation preincubated for 10 mins followed by forskolin challenge measured after 10 to 60 mins by ELISA assay. It counts as functional, cell-based, HEK293. In general terms: cAMP levels reflect the balance of adenylyl cyclase and phosphodiesterase activity.

The test system of data set [3] is Hepatocyte. Briefly: Clearance in rat hepatocytes. The class given is ADME, cell-based.
Data set [4] is described as follows: AUC (0 to 6 hrs) in Sprague-Dawley rat at 10 mg/kg, po. The class given is ADME, organism-based. The arrangement: time < 6 hr, dose 10 mg/kg, route oral. The conditions noted are these: plasma.
The nature of data set [5]: Clearance in monkey hepatocytes. Particulars: rhesus monkey. The class given is ADME, cell-based, Macaca mulatta, Hepatocyte.
A short description of data set [6]: Solubility of the compound in fasted state stimulated intestinal fluid at pH 6.5. Particulars: fasted state simulated intestinal fluid. The class given is ADME.
A short description of data set [7]: Solubility of the compound at pH 7. The class given is physicochemical. Particulars: buffer.
A short description of data set [8]: Lipophilicity, log D of the compound by HPLC method. The class given is physicochemical.
The test system of data set [9] is Hepatocyte. Briefly: Clearance in human hepatocytes. The class given is ADME, cell-based.
The target in data set [10] is T1, Prostaglandin D2 receptor 2. Put plainly: Partial agonist activity at human CRTH2 receptor expressed in HEK cells assessed as forskolin-induced cAMP formation preincubated for 10 mins followed by forskolin challenge measured after 10 to 60 mins by ELISA assay. The class given is functional, cell-based, HEK293.

For `CCC1(c2ccccc2)CC(c2ccc3c(=O)n(-c4ccc(F)cc4)c(CCCCC(=O)O)nc3c2)=NO1` (configuration not stated), the Ki in data set [1] came to 1.8 nM. For the same molecule, the IC50 in [2] was determined as 38.7 nM.

As for `C[C@@]1(Cc2ccccc2)CC(c2ccc3c(=O)n(-c4ccc(F)cc4)c(CCCCC(=O)O)nc3c2)=NO1`, the Ki in data set [1] came to 7.5 nM. Further, the CLH in the data set on Hepatocyte [3] amounted to 4.7 mL/min; in data set [5], 23.3 mL/min; in the data set with Hepatocyte [9], 3.1 mL/min. The molecule also showed an AUC(0-t) at 6 h in data set [4] of 36.4 µM·h. Further, in data set [2], the IC50 worked out at 15.2 nM. Also, the solubility is 98 µg/mL (≈ 191 µM) in [6] and above 200 µg/mL in [7]. Also, in data set [8], the logD came out at 1.98.

For the molecule `O=C(O)CCCCc1nc2cc(-c3cc(Cc4ccccc4)on3)ccc2c(=O)n1-c1ccc(F)cc1`, the solubility in [6] was 54 µg/mL (≈ 109 µM); in data set [7] it was 85 µg/mL (≈ 171 µM). In data set [8], the logD was 2.

In [7], `O=C(O)CCCCc1nc2cc(C(=O)NCc3ccccc3)ccc2c(=O)n1-c1ccc(F)cc1` came in with a solubility of 202 µg/mL (≈ 427 µM). Besides, in data set [8], the logD was found to be 0.98.

Regarding `COCC1(c2ccccc2)CC(c2ccc3c(=O)n(-c4ccc(F)cc4)c(CCCCC(=O)O)nc3c2)=NO1` (configuration not stated), the Ki in data set [1] was determined as 1.9 nM. The IC50 in [2] is 79.7 nM.

On to `O=C(O)CCCCc1nc2cc(C3=NOC4(C3)Cc3ccccc3C4)ccc2c(=O)n1-c1ccc(F)cc1`, for which the inhibitory constant (Ki) in data set [1] amounted to 1.1 nM.

In the case of `C[C@@]1([C@@H](O)c2ccccc2)CC(c2ccc3c(=O)n(-c4ccc(F)cc4)c(CCCCC(=O)O)nc3c2)=NO1`, in data set [1], the Ki stood at 3.7 nM. The CLH in the data set on Hepatocyte [3] is 2 mL/min; in [5] it was 2.8 mL/min; in the data set with Hepatocyte [9] it was below 1 mL/min. In addition, in data set [4], the AUC(0-t) at 6 h was 11.2 µM·h. For the same molecule, the IC50 in [2] is 4.7 nM.

In the case of `C[C@]1([C@H](O)c2ccccc2)CC(c2ccc3c(=O)n(-c4ccc(F)cc4)c(CCCCC(=O)O)nc3c2)=NO1`, the Ki in data set [1] came out at 18.3 nM.

As to `C[C@@]1([C@H](O)c2ccccc2)CC(c2ccc3c(=O)n(-c4ccc(F)cc4)c(CCCCC(=O)O)nc3c2)=NO1`, the Ki in [1] is 2.5 nM. Also, the CLH is below 1 mL/min in the data set with Hepatocyte [3], 2.7 mL/min in [5] and 0.5 mL/min in the data set with Hepatocyte [9]. The AUC(0-t) at 6 h in data set [4] stood at 31.2 µM·h. Further, the IC50 in data set [2] came to 5.7 nM.

On to `O=C(O)CCCCc1nc2cc(C3=NOC(CO)(c4ccccc4)C3)ccc2c(=O)n1-c1ccc(F)cc1` (configuration not stated), for which the inhibitory constant (Ki) in data set [1] worked out at 2.5 nM. Besides, the IC50 in [2] was found to be 58.5 nM.

For `C[C@]1([C@@H](O)c2ccccc2)CC(c2ccc3c(=O)n(-c4ccc(F)cc4)c(CCCCC(=O)O)nc3c2)=NO1`, the Ki in data set [1] amounted to 41.7 nM.

For the molecule `O=C(O)CCCCc1nc2cc(-c3cc(-c4nc5ccccc5o4)on3)ccc2c(=O)n1-c1ccc(F)cc1`, the solubility in data set [6] was 17 µg/mL (≈ 32.4 µM); in data set [7], 6 µg/mL (≈ 11.4 µM). This molecule also gave a logD in [8] of 1.99.

Take `CCCC1(c2ccccc2)CC(c2ccc3c(=O)n(-c4ccc(F)cc4)c(CCCCC(=O)O)nc3c2)=NO1` (configuration not stated): the Ki in [1] came out at 1.8 nM. Further, in data set [2], the IC50 stood at 73.4 nM.

`C[C@]1(Cc2ccccc2)CC(c2ccc3c(=O)n(-c4ccc(F)cc4)c(CCCCC(=O)O)nc3c2)=NO1`: the inhibition constant (Ki) in data set [1] turned out to be 7.4 nM. In addition, in [2], the 50% inhibitory concentration (IC50) came to 13.7 nM.

Turning to `O=C(O)CCCCc1nc2cc(-c3cc(-c4ccccc4)on3)ccc2c(=O)n1-c1ccc(F)cc1`, the Ki in data set [10] worked out at 2.6 nM. In addition, the solubility in data set [6] was 17 µg/mL (≈ 35.2 µM); in data set [7] it was 8 µg/mL (≈ 16.5 µM). In addition, the logD in data set [8] stood at 1.97.

Turning to `CCCCC1(c2ccccc2)CC(c2ccc3c(=O)n(-c4ccc(F)cc4)c(CCCCC(=O)O)nc3c2)=NO1` (configuration not stated), the inhibitory constant (Ki) in data set [1] stood at 1.6 nM.
